Measured values reported in US4672036A, “Pure cultures of Kibdelsporangium aridum Shearer gen. nov., sp. nov. ATCC 39323 and mutants thereof” (SmithKline Beckman Corporation, priority 1985, dated 1987).
In brackets after ≈: the same amount, converted by molar mass. Several values for one entry are separate records, joined by “and”; a condition that tells them apart may be missing. Identical values can stand only once. Like-named read-outs stand apart in the source and are kept apart here.

Tests used:
[1] = test system: Staph. aureus SK & F 2620; type: cell-based; conditions: Staphylococcus aureus
Staph. aureus SK & F 675 = type: cell-based; conditions: Staphylococcus aureus
Providencia SK & F 276 = type: cell-based; conditions: Providencia
[2] = test system: Staph. aureus SK & F 2589; type: cell-based; conditions: Staphylococcus aureus
Strep. faecilis HH34358 = type: cell-based
[3] = test system: Clostridium perfringens MCP-1; assay: microbe, parasite or virus in culture; conditions: MCP1
[4] = test system: Staph. aureus SK & F 2591; type: cell-based; conditions: Staphylococcus aureus
Staph. aureus HH127 = type: cell-based; conditions: Staphylococcus aureus
[5] = test system: Staph. aureus SK & F 2592; type: cell-based; conditions: Staphylococcus aureus
C. perfringens MCP-2 = assay: microbe, parasite or virus in culture; conditions: Clostridium perfringens, MCP2
[6] = test system: Proteus morgani SK & F 179; type: cell-based
[7] = test system: Staph. aureus SK & F 2621; type: cell-based; conditions: Staphylococcus aureus
[8] = test system: B. thetaiotamicron SK & F 3089; type: cell-based
[9] = test system: E. coli 12140 (SK & F 809); type: cell-based; conditions: Escherichia coli
[10] = test system: Staph. aureus SK & F 2678; type: cell-based; conditions: Staphylococcus aureus
Staph. aureus SK & F 910 = type: cell-based; conditions: Staphylococcus aureus
[11] = test system: Staph. epidermidis SK & F 651; type: cell-based; conditions: Staphylococcus epidermidis
[12] = test system: Staph. aureus SK & F 2777; type: cell-based; conditions: Staphylococcus aureus
[13] = test system: Staph. aureus SK & F 1761; type: cell-based; conditions: Staphylococcus aureus
[14] = test system: C. perfringens ATCC 19408; assay: microbe, parasite or virus in culture; conditions: Clostridium perfringens, ATCC19408
[15] = test system: Bacteroides fragilis ATCC 25285; type: cell-based; conditions: Bacteroides fragilis, ATCC25285
Staph. aureus 209P = type: cell-based; conditions: Staphylococcus aureus
[16] = test system: Staph. aureus SK & F 2590; type: cell-based; conditions: Staphylococcus aureus
[17] = test system: Staph. aureus SK & F 2615; type: cell-based; conditions: Staphylococcus aureus
[18] = test system: Staph. aureus 209P-Mutant; assay: microbe, parasite or virus in culture; type: cell-based; conditions: Staphylococcus aureus, 209P
[19] = test system: Strep. faecalis SK & F 657; type: cell-based; conditions: Enterococcus faecalis
[20] = test system: Staph. aureus SK & F 2682; type: cell-based; conditions: Staphylococcus aureus
[21] = test system: Staph. aureus SK & F 674-P6 Mutant; assay: microbe, parasite or virus in culture; type: cell-based; conditions: Staphylococcus aureus
rumen in vitro model = rumen in vitro model (growth promotant activity); parameters: species or system steer
Protocol: The protocol for the rumen in vitro model is analogous to the protocol for the swine in vitro model with the following modifications:
(1) A 400 kg steer is surgically prepared with a rumen cannula.
(2) The animal is fed one time a day with the following ration:
(3) Manipulation of VFA production is described as the production ratio of propionate as a percentage of total VFA produced.
(4) Sampling of the material, via the cannula, is at 120 minutes post feeding.

[22] = test system: Staph. aureus SK & F 2680; type: cell-based; conditions: Staphylococcus aureus
[23] = test system: Staph. aureus SK & F 2614; type: cell-based; conditions: Staphylococcus aureus
[24] = test system: Staph. aureus SK & F 2596; type: cell-based; conditions: Staphylococcus aureus
[25] = test system: Fusobacterium nucleatum ATCC 25586; type: cell-based; conditions: Fusobacterium nucleatum, ATCC25586
[26] = test system: Serratia marcesens ATCC 13880; type: cell-based; conditions: Serratia, ATCC13880
[27] = test system: Staph. aureus SK & F 2597; type: cell-based; conditions: Staphylococcus aureus
[28] = test system: Staph. aureus SK & F 2593; type: cell-based; conditions: Staphylococcus aureus
[29] = test system: Proteus mirabilis SK & F 444; type: cell-based; conditions: Proteus mirabilis
[30] = test system: Listeria monocytogenes SK & F 2255; type: cell-based; conditions: Listeria monocytogenes
[31] = test system: Staph. epidermidis SK & F 2265; type: cell-based; conditions: Staphylococcus epidermidis
[32] = test system: Staph. aureus SK & F 2595; type: cell-based; conditions: Staphylococcus aureus

CN[C@H](CC(C)C)C(=O)N[C@H]1C(=O)N[C@@H](CC(N)=O)C(=O)N[C@H]2C(=O)N[C@H]3C(=O)N[C@H](C(=O)N[C@H](C(=O)O)c4cc(O)cc(O)c4-c4cc3ccc4O)[C@H](O)c3ccc(c(Cl)c3)Oc3cc2cc(c3O[C@@H]2O[C@H](CO)[C@@H](O)[C@H](O)[C@H]2O[C@H]2C[C@](C)(N)[C@H](O)[C@H](C)O2)Oc2ccc(cc2Cl)[C@H]1O [Vancomycin, reference compound]
MIC [1]: 3.1 µg/mL (≈ 2.14 µM) | MIC (Staph. aureus SK & F 675; Table C, Methicillin Resistant): 1.6 µg/mL (≈ 1.1 µM) | MIC (Staph. aureus SK & F 675; Table E): 3.1 µg/mL (≈ 2.14 µM) | MIC (Providencia SK & F 276): > 100 µg/mL | MIC [2]: 1.6 µg/mL (≈ 1.1 µM) | MIC (Strep. faecilis HH34358): 3.1 µg/mL (≈ 2.14 µM) | MIC (Strep. faecilis HH34358; Enterococcus faecalis, HH34358): 6.3 µg/mL (≈ 4.35 µM) | MIC [3]: 0.5 µg/mL (≈ 0.345 µM) | MIC [4]: 1.6 µg/mL (≈ 1.1 µM) | MIC (Staph. aureus HH127; HH127, Table A): 1.6 µg/mL (≈ 1.1 µM) | MIC (Staph. aureus HH127; HH127, Table B, Methicillin Sensitive): 1.6 µg/mL (≈ 1.1 µM) | MIC (Staph. aureus HH127; HH127, Table E): 3.1 µg/mL (≈ 2.14 µM) | MIC [5]: 3.1 µg/mL (≈ 2.14 µM) | MIC (C. perfringens MCP-2): 0.5 µg/mL (≈ 0.345 µM) | MIC [6]: > 100 µg/mL | MIC [7]: 1.6 µg/mL (≈ 1.1 µM) | MIC [8]: 32 µg/mL (≈ 22.1 µM) | MIC ([9]; Table A): 100 µg/mL (≈ 69 µM) | MIC ([9]; Table E): > 100 µg/mL | MIC [10]: 1.6 µg/mL (≈ 1.1 µM) | MIC (Staph. aureus SK & F 910; Table A): 1.6 µg/mL (≈ 1.1 µM) | MIC (Staph. aureus SK & F 910; Table B, Methicillin Sensitive): 1.6 µg/mL (≈ 1.1 µM) | MIC (Staph. aureus SK & F 910; Table E): 3.1 µg/mL (≈ 2.14 µM) | MIC ([11]; Table A): 1.6 µg/mL (≈ 1.1 µM) | MIC ([11]; Table E): 6.3 µg/mL (≈ 4.35 µM) | MIC [12]: 0.8 µg/mL (≈ 0.552 µM) | MIC [13]: 1.6 µg/mL (≈ 1.1 µM) | MIC [14]: 1 µg/mL (≈ 0.69 µM) | MIC [15]: 32 µg/mL (≈ 22.1 µM) | MIC (Staph. aureus 209P): 1.6 µg/mL (≈ 1.1 µM) | MIC [16]: 1.6 µg/mL (≈ 1.1 µM) | MIC [17]: 3.1 µg/mL (≈ 2.14 µM) | MIC [18]: > 100 µg/mL | MIC [19]: 3.1 µg/mL (≈ 2.14 µM) | MIC [20]: 1.6 µg/mL (≈ 1.1 µM) | MIC [21]: > 100 µg/mL | Propionate % (rumen in vitro model): 127 % Control and 130 % Control and 105 % Control | VFA (total of volatile fatty acids) (rumen in vitro model): 107 % Control and 97 % Control | MIC [22]: 1.6 µg/mL (≈ 1.1 µM) | MIC [23]: 1.6 µg/mL (≈ 1.1 µM) | MIC [24]: 3.1 µg/mL (≈ 2.14 µM) | MIC [25]: 32 µg/mL (≈ 22.1 µM) | MIC [26]: > 100 µg/mL | MIC [27]: 3.1 µg/mL (≈ 2.14 µM) | MIC [28]: 1.6 µg/mL (≈ 1.1 µM) | MIC [29]: 100 µg/mL (≈ 69 µM) | MIC ([30]; Table A): 1.6 µg/mL (≈ 1.1 µM) | MIC ([30]; Table E): 3.1 µg/mL (≈ 2.14 µM) | MIC [31]: 6.3 µg/mL (≈ 4.35 µM) | MIC [32]: ~1.6 µg/mL (≈ 1.1 µM)
